Literature values, collected in patent publication US20120237901A1, “Denture Adhesive Remover for Intraoral and Extraoral Use” (priority 2011, published 2012).

Tests used:
[1] = system: mold; details: 5% solution of acetic acid in water; reportedly
[2] = system: bacteria; details: 5% solution of acetic acid in water; reportedly

CC(=O)O [acetic acid]
effective against mold [1]: 90%
effective against bacteria [2]: 99.9%
